A short description of data set [1]: Cytotoxicity against HCEC assessed as reduction in cell viability at 2% concentration by MTT assay relative to control. It counts as functional, Homo sapiens.
Data set [2] can be described thus: Cytotoxicity against HCEC assessed as […] cell viability at 1% concentration by MTT assay relative to control. It counts as functional, Homo sapiens.
Data set [3] has as its target Carbonic anhydrase 9 (Homo sapiens, UniProt Q16790). The data set can be described thus: Inhibition of recombinant human carbonic anhydrase 9 using 4-nitrophenylacetate as substrate.
Data set [4] is described as follows: Solubility of the compound. It is filed as physicochemical.

SMILES strings stand for the structures.

Take `CC(=O)N[C@@H]1O[C@H](CO)[C@@H](O)[C@H](O)[C@H]1NC(=O)c1ccc(S(N)(=O)=O)cc1`: the Activity is listed as 77% in data set [1] and 80% in data set [2]. Also, in data set [3], the IC50 was 227 nM. In addition, the solubility in data set [4] was determined as 2.5%.

With `CCCO[C@@H]1O[C@H](CO)[C@@H](O)[C@H](O)[C@H]1NC(=O)c1ccc(S(N)(=O)=O)cc1`, the Activity in data set [1] was found to be 77%; in data set [2], 80%. In addition, the IC50 in data set [3] was 241 nM. In addition, the solubility in data set [4] was determined as 2%.

As to `CO[C@@H]1O[C@H](CO)[C@@H](O)[C@H](O)[C@H]1NC(=O)c1ccc(S(N)(=O)=O)cc1`, the Activity in data set [1] came to 77%; in data set [2] it was 80%. In addition, in data set [3], the IC50 was 90 nM. For the same molecule, the solubility in data set [4] was found to be 2.5%.

With `CCO[C@@H]1O[C@H](CO)[C@@H](O)[C@H](O)[C@H]1NC(=O)c1ccc(S(N)(=O)=O)cc1`, the Activity in data set [1] is recorded as 77%; in data set [2] it was 80%. The IC50 in data set [3] stood at 152 nM. In data set [4], this molecule had a solubility of 2.3%.

With `CC(C)O[C@@H]1O[C@H](CO)[C@@H](O)[C@H](O)[C@H]1NC(=O)c1ccc(S(N)(=O)=O)cc1`, the Activity is given as 77% in data set [1] and 80% in data set [2]. Moreover, the IC50 in data set [3] turned out to be 142 nM. The solubility in data set [4] was 2%.

Turning to `CCC(=O)N[C@@H]1O[C@H](CO)[C@@H](O)[C@H](O)[C@H]1NC(=O)c1ccc(S(N)(=O)=O)cc1`, the Activity in data set [1] was determined as 77%; in data set [2], 80%. Also, the IC50 in data set [3] worked out at 276 nM. In data set [4], the solubility worked out at 2.5%.

As to `CC(=O)Nc1nnc(S(N)(=O)=O)s1` [ACETAZOLAMIDE], in data set [4], the solubility stood at 0.21%.

As for `CCN[C@H]1CN(CCCOC)S(=O)(=O)c2sc(S(N)(=O)=O)cc21` [BRINZOLAMIDE], the solubility in data set [4] came to 0.05%.

Regarding `NS(=O)(=O)c1ccc(C(=O)O)cc1` [CARZENIDE], in data set [3], the IC50 came out at 24000 nM.

Regarding `CCN[C@H]1C[C@H](C)S(=O)(=O)c2sc(S(N)(=O)=O)cc21` [DORZOLAMIDE], the solubility in data set [4] stood at 0.67%.

For the origin of these results see ChEMBL document CHEMBL5030527, “Novel carbohydrate-based sulfonamide derivatives as selective carbonic anhydrase II inhibitors: Synthesis, biological and molecular docking analysis” (Bioorg Med Chem Lett, 2021).
